Measured values from patent EP4810052A2, “HCRHR2 SELECTIVE POLYPEPTIDES” (Gubra A/S, priority 2023, dated 2026).
pEC50: −log10 of the molar value. Read-outs that look alike come from different tables or passages of the source. Starred links: 1 amine or outer side, 2 acyl side, 3 side chain; linkers in the order of their positions; H or OH if unused. Non-standard residues stand in square brackets, D forms with d. Residues, ends and D or L forms follow the SMILES beside them. Groups on a side chain read outwards from the residue. *: point of attachment. C20 diacid = O=C(O)CCCCCCCCCCCCCCCCCCC(=O)*; γGlu = O=C(O)[C@H](CCC(=O)[*:2])N[*:1]; NMeI = CC[C@H](C)[C@H](NC)C(=O)O; Nle = CCCC[C@H](N)C(=O)O; AEEA = NCCOCCOCC(=O)O; Aib = CC(C)(N)C(=O)O

What was measured:
hCRHR2 = target: T1, hCRHR2 (Homo sapiens, UniProt Q13324); test: HTRF cAMP assay, determination of hCRHR2 potency (peptide libraries 5 conc., purified peptides 11 conc.); type: cell-based; conditions: for pEC50: read-out: hCRHR2 EC50
T1 sequence (Q13324 1-411): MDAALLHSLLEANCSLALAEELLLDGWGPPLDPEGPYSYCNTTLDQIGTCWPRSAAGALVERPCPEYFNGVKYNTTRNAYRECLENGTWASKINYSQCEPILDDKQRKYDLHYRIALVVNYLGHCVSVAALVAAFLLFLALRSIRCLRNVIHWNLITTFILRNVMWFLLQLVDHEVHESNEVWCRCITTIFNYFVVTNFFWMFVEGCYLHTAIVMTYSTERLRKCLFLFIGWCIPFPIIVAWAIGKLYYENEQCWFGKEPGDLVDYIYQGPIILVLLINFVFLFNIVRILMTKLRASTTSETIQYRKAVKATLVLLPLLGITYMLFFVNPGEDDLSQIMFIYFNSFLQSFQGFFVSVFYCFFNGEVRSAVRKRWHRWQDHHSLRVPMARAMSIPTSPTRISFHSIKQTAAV
How it was run: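 Agonist peptides are added to suspended, freshly thawed CHO-K1 cells that stably carry the human receptor. Intracellular cAMP competes with d2-cAMP for a cryptate-tagged antibody, lowering the FRET signal. A variable-slope sigmoid curve is fitted to obtain EC50.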

hCRHR1 = target: T2, hCRHR1 (Homo sapiens, UniProt P34998); test: HTRF cAMP assay, determination of hCRHR1 potency (peptide libraries 5 conc., purified peptides 11 conc.); type: cell-based; conditions: for pEC50: read-out: hCRHR1 EC50
T2 sequence (P34998 24-415): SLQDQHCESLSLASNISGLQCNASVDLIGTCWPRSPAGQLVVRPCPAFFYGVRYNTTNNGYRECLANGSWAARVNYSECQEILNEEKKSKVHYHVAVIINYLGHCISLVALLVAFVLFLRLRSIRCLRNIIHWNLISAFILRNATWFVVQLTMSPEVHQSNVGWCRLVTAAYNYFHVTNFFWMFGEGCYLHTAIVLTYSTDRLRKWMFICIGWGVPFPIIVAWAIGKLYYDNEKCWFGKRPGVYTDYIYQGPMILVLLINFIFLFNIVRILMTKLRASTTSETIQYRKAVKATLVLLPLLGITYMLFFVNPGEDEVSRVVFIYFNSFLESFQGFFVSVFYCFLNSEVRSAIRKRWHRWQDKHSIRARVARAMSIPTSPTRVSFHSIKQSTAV
How it was run: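 CHO-K1 cells stably expressing human CRHR1, thawed from frozen stocks just before use, were stimulated in suspension with agonist peptides. cAMP was measured by HTRF competitive immunoassay (cryptate anti-cAMP antibody vs d2-cAMP).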

[1] = Thioflavin T fibril formation assay of purified peptides; type: physicochemical; design: key: Amyloid fibril formation detected by an increase in ThT fluorescence was denoted with "Yes"; samples without increasing ThT fluorescence hence not forming amyloid fibrils were denoted "No"
How it was run: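 Compounds at 200 µM in 50 mM phosphate buffer at the stated pH values, or at 200 µM in semaglutide drug product adjusted to pH 7.4, with 4 µM ThT final. Fibrillation followed as ThT fluorescence (ex 450/em 480 nm) over 96 h at 40°C, with 5 min shaking at 700 rpm alternating with 5 min rest; triplicates.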

PK in rats = type: in vivo; design: T½ / MRT: unit not given here; conditions: for half-life: read-out: T½ (converted)
How it was run: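 Lean male Sprague Dawley rats (n = 3 per group) got a two-peptide combination at 50 nmol/kg IV and SC. Plasma was sampled from 0.17 to 96 h post dose and analysed by LC-MSMS. PK parameters came from non-compartmental analysis.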

[2] = purified peptides, CHO-K1 cells stably expressing hCRHR2, cAMP HTRF
[3] = purified peptides, CHO-K1 cells stably expressing hCRHR1, cAMP HTRF
[4] = male, Sprague Dawley (RJHan:SD), in vivo, iv, Rat, 50 nmol/kg i.v.
[5] = male, Sprague Dawley (RJHan:SD), in vivo, sc, Rat, 50 nmol/kg s.c.

Q: With `CC[C@H](C)[C@H](N)C(=O)N[C@H](C(=O)N[C@@H](CC(C)C)C(=O)N[C@@H](CO)C(=O)N[C@@H](CC(C)C)C(=O)N[C@@H](CC(=O)O)C(=O)N[C@H](C(=O)N1CCC[C@H]1C(=O)N[C@H](C(=O)NCC(=O)N[C@@H](CC(C)C)C(=O)N[C@@H](CC(C)C)C(=O)N[C@@H](CCC(N)=O)C(=O)N[C@H](C(=O)N[C@@H](CC(C)C)C(=O)N[C@@H](CC(C)C)C(=O)N[C@@H](CCC(=O)O)C(=O)N[C@@H](CCC(N)=O)C(=O)N[C@@H](C)C(=O)N[C@@H](CCCNC(=N)N)C(=O)N[C@@H](C)C(=O)N[C@@H](CCCNC(=N)N)C(=O)N[C@@H](C)C(=O)N[C@@H](C)C(=O)N[C@@H](CCCNC(=N)N)C(=O)N[C@@H](CCC(=O)O)C(=O)N[C@@H](CCC(N)=O)C(=O)N[C@@H](C)C(=O)N[C@H](C(=O)N[C@@H](CCCCNC(=O)COCCOCCNC(=O)COCCOCCNC(=O)CC[C@H](NC(=O)CC[C@H](NC(=O)CCCCCCCCCCCCCCCCCCC(=O)O)C(=O)O)C(=O)O)C(=O)N[C@@H](CC(N)=O)C(=O)N[C@@H](C)C(=O)N[C@@H](CCC(=O)O)C(=O)N[C@H](C(=O)N[C@@H](CC(C)C)C(=O)N[C@@H](C)C(=O)N[C@@H](CCC(=O)O)C(=O)N[C@H](C(N)=O)C(C)C)[C@@H](C)CC)[C@@H](C)O)[C@@H](C)CC)[C@@H](C)CC)C(C)C)C(C)C` [SEQ ID NO: 4] (H-IVLSLDVPIGLLQILLEQARARAAREQATK([AEEA-AEEA-γGlu-γGlu-C20 diacid])NAEILAEV-NH2) as the compound, how does the “Selectivity ratio (hCRHR1/ hCRHR2)” value (hCRHR2; hCRHR1-EC50/hCRHR2-EC50) read?
A: >3846

Q: And the pEC50 (hCRHR2; [2])?
A: 8.89

Q: What about the pEC50 (hCRHR1; [3]) of the same compound?
A: < 5.30

Q: What about the “Fibrillation (pH 7.5)” value ([1]; pH 7.5, ThT assay) of the same compound?
A: No

Q: What about the MRT (PK in rats; Rat) of the same compound?
A: 6.4

Q: And the T½ (PK in rats; Rat)?
A: 5.3

Q: And the “Solubility pH 7.5, target conc. =10 mg/mL (measured mg/mL)” value (pH 7.5)?
A: 9.1 mg/mL

Q: With `CCCC[C@H](NC(=O)[C@@H](NC(=O)[C@H](CCC(=O)O)NC(=O)[C@H](C)NC(=O)[C@H](CC(N)=O)NC(=O)C(C)(C)NC(=O)[C@H](CCCCNC(=O)COCCOCCNC(=O)COCCOCCNC(=O)CC[C@H](NC(=O)CC[C@H](NC(=O)CCCCCCCCCCCCCCCCCCC(=O)O)C(=O)O)C(=O)O)NC(=O)[C@H](C)NC(=O)[C@H](CCC(N)=O)NC(=O)[C@H](CCC(=O)O)NC(=O)[C@H](CCCNC(=N)N)NC(=O)[C@H](C)NC(=O)[C@H](C)NC(=O)[C@H](CCCNC(=N)N)NC(=O)[C@H](C)NC(=O)[C@H](CCCNC(=N)N)NC(=O)[C@H](C)NC(=O)[C@H](CCC(N)=O)NC(=O)[C@H](CO)NC(=O)[C@H](CC(C)C)NC(=O)[C@H](CC(C)C)NC(=O)[C@@H](NC(=O)[C@H](CCC(N)=O)NC(=O)[C@H](CC(C)C)NC(=O)[C@H](CC(C)C)NC(=O)CNC(=O)[C@@H](NC(=O)[C@@H]1CCCN1C(=O)[C@@H](NC(=O)[C@H](CC(=O)O)NC(=O)[C@H](CC(C)C)NC(=O)[C@H](CO)NC(=O)[C@H](CC(C)C)NC(=O)[C@@H](NC(=O)[C@@H]1CCCN1)C(C)C)C(C)C)[C@@H](C)CC)[C@@H](C)CC)[C@@H](C)CC)C(=O)N[C@@H](C)C(=O)N[C@@H](CCC(=O)O)C(=O)N[C@H](C(N)=O)C(C)C` [SEQ ID NO: 238] (H-PVLSLDVPIGLLQILLSQARARAAREQAK([AEEA-AEEA-γGlu-γGlu-C20 diacid])[Aib]NAEI[Nle]AEV-NH2) as the compound, how does the “Selectivity ratio (hCRHR1/ hCRHR2)” value (hCRHR2; Table 5) read?
A: >6329

Q: What about the pEC50 (hCRHR2; Table 5, purified peptides) of the same compound?
A: 9.10

Q: What about the pEC50 (hCRHR1; Table 5, purified peptides) of the same compound?
A: < 5.30

Q: And the EC50 (hCRHR1; stable cell system, Table 10, read-out: Stable EC50 (nM) hCRHR 1)?
A: > 5000 nM

Q: And the “Amyloid fibril formation + semaglutide (Ozempic®), pH 7.4” value ([1]; 200 µM compound dissolved in semaglutide drug product, pH 7.4, listed as None = drug product alone)?
A: No

Q: What about the “Amyloid fibril formation pH 7.0” value ([1]; 200 µM in 50 mM phosphate buffer, pH 7.0) of the same compound?
A: No

Q: What about the “Amyloid fibril formation pH 7.5” value ([1]; 200 µM in 50 mM phosphate buffer, pH 7.5) of the same compound?
A: No

Q: What about the “Amyloid fibril formation pH 8.0” value ([1]; 200 µM in 50 mM phosphate buffer, pH 8.0) of the same compound?
A: No

Q: And the “Fibrillation (pH 7.5)” value ([1]; pH 7.5)?
A: No

Q: What about the MRT (PK in rats; Rat) of the same compound?
A: 14.2

Q: What about the T½ (PK in rats; Rat) of the same compound?
A: 10.2

Q: What about the clearance (PK in rats; [4]) of the same compound?
A: 0.117 mL/min/kg

Q: And the half-life (PK in rats; [4])?
A: 612 min

Q: What about the Cmax (PK in rats; [5]) of the same compound?
A: 91 nM

Q: And the Tmax (PK in rats; [5])?
A: 24 h

Q: What about the half-life (PK in rats; [5]) of the same compound?
A: 660 min

Q: What about the bioavailability (PK in rats; male, Sprague Dawley, rat, in vivo, sc) of the same compound?
A: 43%

Q: And the “Solubility pH 6.5 (mg/ml)” value (pH 6.5)?
A: 20.4 mg/ml

Q: And the “Solubility pH 7.0 (mg/mL)” value (pH 7)?
A: 20.6 mg/mL

Q: And the “Solubility pH 7.5 (mg/mL)” value (pH 7.5)?
A: 18.0 mg/mL

Q: And the “Solubility pH 7.5 + phenol (mg/mL)” value (pH 7.5)?
A: 17.9 mg/mL

Q: And the “Solubility pH 7.5, target conc. =10 mg/mL (measured mg/mL)” value (pH 7.5)?
A: 11 mg/mL

Q: Which results are given for `CC[C@H](C)[C@H](NC)C(=O)N[C@H](C(=O)N[C@@H](CC(C)C)C(=O)N[C@@H](CO)C(=O)N[C@@H](CC(C)C)C(=O)N[C@@H](CC(=O)O)C(=O)N[C@H](C(=O)N1CCC[C@H]1C(=O)N[C@H](C(=O)NCC(=O)N[C@@H](CC(C)C)C(=O)N[C@@H](CC(C)C)C(=O)N[C@@H](CCC(N)=O)C(=O)N[C@H](C(=O)N[C@@H](CC(C)C)C(=O)N[C@@H](CC(C)C)C(=O)N[C@@H](CCC(=O)O)C(=O)N[C@@H](CCC(N)=O)C(=O)N[C@@H](C)C(=O)N[C@@H](CCCNC(=N)N)C(=O)N[C@@H](C)C(=O)N[C@@H](CCCNC(=N)N)C(=O)N[C@@H](C)C(=O)N[C@@H](C)C(=O)N[C@@H](CCCNC(=N)N)C(=O)N[C@@H](CCC(=O)O)C(=O)N[C@@H](CCC(N)=O)C(=O)N[C@@H](C)C(=O)N[C@@H](CCCCNC(=O)COCCOCCNC(=O)COCCOCCNC(=O)CC[C@H](NC(=O)CC[C@H](NC(=O)CCCCCCCCCCCCCCCCCCC(=O)O)C(=O)O)C(=O)O)C(=O)N[C@H](C(=O)N[C@@H](CC(N)=O)C(=O)N[C@@H](C)C(=O)N[C@@H](CCC(=O)O)C(=O)N[C@H](C(=O)N[C@@H](CC(C)C)C(=O)N[C@@H](C)C(=O)N[C@@H](CCC(=O)O)C(=O)N[C@H](C(N)=O)C(C)C)[C@@H](C)CC)[C@@H](C)O)[C@@H](C)CC)[C@@H](C)CC)C(C)C)C(C)C` [SEQ ID NO: 5] (H-[NMeI]VLSLDVPIGLLQILLEQARARAAREQAK([AEEA-AEEA-γGlu-γGlu-C20 diacid])TNAEILAEV-NH2)?
A: Selectivity ratio (hCRHR1/ hCRHR2) (hCRHR2; hCRHR1-EC50/hCRHR2-EC50): >4167; pEC50 (hCRHR2; [2]): 8.92; pEC50 (hCRHR1; [3]): < 5.30; Fibrillation (pH 7.5) ([1]; pH 7.5, ThT assay): No; MRT (PK in rats; Rat): 7.9; T½ (PK in rats; Rat): 8.6; Solubility pH 7.5, target conc. =10 mg/mL (measured mg/mL) (pH 7.5): 11 mg/mL
